Measured values: PMC9653733, “Characterization of a Potent, Selective, and Safe Inhibitor, Ac15(Az8)2, in Reversing Multidrug Resistance Mediated by Breast Cancer Resistance Protein (BCRP/ABCG2)” (International Journal of Molecular Sciences, 2022)

Assays:
S1 xenograft = experiment: In vivo efficacy in parental S1 xenograft; parameters: species or system Balb/c nu nu mice; conditions: four times (700% without treatment)
Description: (A) S1 xenograft. (B) S1M180 xenograft. There were 3 treatment groups in S1 and S1M180 xenograft model. Treatments were given as indicated by an arrow (↑). % of tumor volume reduction was compared among different treatment groups on days 55 and 71. a, b, and c = mean tumor volume of solvent control, topotecan alone, and combination treatment groups on day 55, respectively. d and e = mean tumor volume of topotecan alone and combination treatment groups on day 71. (C) Tumor weight of S1M180-bearing mice on termination day. (D) % change of tumor volume and tumor doubling time of S1M180 xenograft were determined on days 55 and 71. […] Number of animal death was monitored during the efficacy study. (E) Body weight of S1M180-bearing mice. (F) To measure plasma and intratumor level of topotecan, S1M180-bearing mice were administered with 45 mg/kg (I.P.) of Ac15(Az8)2 one hour prior to 6 mg/kg (I.P.) of topotecan administration. Five hours after topotecan administration, the mice were sacrificed. Plasma and tumor were collected for analyzing topotecan level using UPLC–MS/MS. Student’s unpaired two-tailed t-test was performed between combination group and topotecan alone group or solvent control group as indicated (* p < 0.05, ** p < 0.01, *** p < 0.001).

S1 cells = experiment: Drug accumulation assay in S1; format: cell-based, human; conditions: non-BCRP overexpressing S1 cells; 100 nM or 1000 nM
Protocol: Figure 2 Effect of Ac15(Az8)2 on intracellular accumulation of BCRP-substrates in S1 and S1M180 cells. Cells were pre-treated with 0.1% DMSO, 100 nM, or 1000 nM Ac15(Az8)2 and then incubated with BCRP substrates. (A) Topotecan accumulation. (B) DOX accumulation. The intracellular level of drug after treatment was normalized to that of S1 cells after incubating with 0.1% DMSO. Student unpaired two-tailed t-test was conducted as indicated (** p < 0.01, *** p < 0.001). (C) To measure DOX efflux, S1M180 cells were pre-incubated with medium containing 20 μM DOX for 1 h at 37 °C. Cells were then washed and further incubated with or without 1 µM of Ac15(Az8)2. At 0, 5, 10, 30, 60, 120, and 180 min, the cells were harvested to measure the intracellular DOX level. (D) To determine intracellular Ac15(Az8)2 concentration, 1 × 10^7 cells were incubated with 1 µM of Ac15(Az8)2 at 37 °C for 2 h. Cells were then washed with ice-cold PBS. […]
Briefly, 1 × 10^6 cells of S1 and S1M180 cells were pre-incubated with 100 nM or 1000 nM Ac15(Az8)2 for 2 h and followed by 50 µM of topotecan or 20 µM of DOX for 1-h incubation. […] The fluorescence level of DOX was determined by a fluorescence microplate reader (BMG Technologies) using excitation and an emission wavelength pair of 460 nm and 610 nm.

BCRP-ATPase = target: T1, BCRP-ATPase (Homo sapiens, UniProt Q9UNQ0, R482G); experiment: Vanadate-sensitive BCRP-ATPase activity (S1M180 microsome fraction); format: biochemical; conditions: 2.5 mM ATP, 1 h
T1 construct: endogenous in cells; host or cells: S1M180 (human colon carcinoma, mitoxantrone-selected)
T1 sequence (Q9UNQ0 1-655 R482G): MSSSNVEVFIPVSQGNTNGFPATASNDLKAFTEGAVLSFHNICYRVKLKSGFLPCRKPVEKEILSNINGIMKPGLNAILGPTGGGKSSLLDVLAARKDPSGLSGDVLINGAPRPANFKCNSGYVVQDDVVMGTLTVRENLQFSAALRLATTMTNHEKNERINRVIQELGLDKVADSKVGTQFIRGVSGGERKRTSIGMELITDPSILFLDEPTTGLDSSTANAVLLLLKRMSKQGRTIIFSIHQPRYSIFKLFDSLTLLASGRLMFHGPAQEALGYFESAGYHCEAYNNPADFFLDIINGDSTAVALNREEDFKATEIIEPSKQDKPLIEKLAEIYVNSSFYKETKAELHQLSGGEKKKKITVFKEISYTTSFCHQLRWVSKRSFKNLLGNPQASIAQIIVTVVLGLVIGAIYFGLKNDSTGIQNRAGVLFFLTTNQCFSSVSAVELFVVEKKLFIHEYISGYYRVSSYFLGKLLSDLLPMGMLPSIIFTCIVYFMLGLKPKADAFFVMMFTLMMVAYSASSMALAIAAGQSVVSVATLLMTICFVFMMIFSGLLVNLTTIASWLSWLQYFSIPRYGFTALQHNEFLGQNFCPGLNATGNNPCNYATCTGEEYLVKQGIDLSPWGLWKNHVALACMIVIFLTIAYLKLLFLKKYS
Protocol: Ouabain (Na^+/K^+-ATPase inhibitor) and sodium azide (F-type ATPase inhibitor) were added to S1M180 microsome fraction to inhibit non-ABC transporter ATPase activities. Sodium orthovanadate inhibits ABC transporter ATPase activity and is used to calculate vanadate-ensitive activity by subtraction from the total ATPase activity (without sodium orthovanadate). […] After reaction was stopped, inorganic phosphate level was determined using colorimetry method. The percentages of vanadate-sensitive BCRP-ATPase activity were shown as mean ± S.D.
The membrane fraction of S1M180 cells was prepared as previously reported [48]. […] The absorbance of 655 nm was measured by CLARIOstar® microplate reader (BMG). […]

BCRP (S1M180 cells) = target: T2, BCRP (S1M180 cells) (Homo sapiens, UniProt Q9UNQ0, R482G); experiment: Drug accumulation assay in S1M180; format: cell-based
T2 construct: endogenous in cells; host or cells: S1M180 (human colon carcinoma, mitoxantrone-selected)
T2 sequence (Q9UNQ0 1-655 R482G): T1 sequence (Q9UNQ0 1-655 R482G)
Protocol: Figure 2 Effect of Ac15(Az8)2 on intracellular accumulation of BCRP-substrates in S1 and S1M180 cells. Cells were pre-treated with 0.1% DMSO, 100 nM, or 1000 nM Ac15(Az8)2 and then incubated with BCRP substrates. (A) Topotecan accumulation. (B) DOX accumulation. The intracellular level of drug after treatment was normalized to that of S1 cells after incubating with 0.1% DMSO. Student unpaired two-tailed t-test was conducted as indicated (** p < 0.01, *** p < 0.001). (C) To measure DOX efflux, S1M180 cells were pre-incubated with medium containing 20 μM DOX for 1 h at 37 °C. Cells were then washed and further incubated with or without 1 µM of Ac15(Az8)2. At 0, 5, 10, 30, 60, 120, and 180 min, the cells were harvested to measure the intracellular DOX level. (D) To determine intracellular Ac15(Az8)2 concentration, 1 × 10^7 cells were incubated with 1 µM of Ac15(Az8)2 at 37 °C for 2 h. Cells were then washed with ice-cold PBS. To the cell pellet, acetonitrile was added to lyse the cells, and the supernatant was saved for Ac15(Az8)2 determination using UPLC–MS/MS.
Briefly, 1 × 10^6 cells of S1 and S1M180 cells were pre-incubated with 100 nM or 1000 nM Ac15(Az8)2 for 2 h and followed by 50 µM of topotecan or 20 µM of DOX for 1-h incubation. DMSO at 0.1% was used as a negative control. After incubation, the cells were spun down and washed with cold PBS, pH7.4 for 2 times and lysed with 100 μL of lysis buffer (0.75 M HCl, 0.2% Triton-X100 in isopropanol) with vigorous vortex. The lysate was further incubated at 37 °C for 20 min. After incubation, the lysate was spun down, and 100 μL of supernatant was saved and seeded into a black 96-well microtiter plate. The fluorescence level of DOX was determined by a fluorescence microplate reader (BMG Technologies) using excitation and an emission wavelength pair of 460 nm and 610 nm.

S1M180 cells = experiment: Cytotoxicity of anticancer drugs in S1M180 (0.1% DMSO); format: cell-based, human
Protocol: In total, 6500 cells of S1M180 or MCF7-MX100 were incubated with various doses of topotecan or DOX and modulators. The final volume in each well of 96-well plates was 200 µL. The plates were then incubated for 5 days at 37 °C. The CellTiter 96 AQueous Assay (Promega) was used to measure cell proliferation. According to the manufacturer’s instructions, MTS (2 mg/mL) and PMS (0.92 mg/mL) were mixed in a ratio of 20:1. An aliquot (10 μL) of the freshly prepared MTS/PMS mixture was added into each well, and the plate was incubated for 2 h at 37 °C. Optical absorbance at 490 nm was then recorded with microplate absorbance reader (Bio-Rad). IC50 values were calculated from the dose-response curves of MTS assays (Prism 4.0).

[1] = 100 nM or 1000 nM Ac15(Az8)2, 2 h pre-incubation

Compound	Xenograft volume on the 11th day (S1 xenograft; topotecan 2 mg/kg + 45 mg/kg Ac15(Az8)2 I.P. every other day)	Effect on DOX accumulation in S1 (S1 cells)	Effect on topotecan accumulation in S1 (S1 cells)	IC50 (BCRP-ATPase)	Effect on DOX accumulation in S1M180 (BCRP (S1M180 cells); [1])	Effect on topotecan accumulation in S1M180 (BCRP (S1M180 cells); [1])	Xenograft volume on the 11th day (S1 xenograft; topotecan alone 2 mg/kg I.P. every other day)	IC50 (S1M180 cells; Homo sapiens, S1-M1-80, S1M180 + 0.1% DMSO, mean ± S.D., n = 3, read-out: IC50 of topotecan)	RF (Relative Fold), topotecan (S1M180 cells; S1M180 + 0.1% DMSO (reference))	Topotecan accumulation in S1M180, fold less than parental S1 (BCRP (S1M180 cells); 50 µM topotecan, 1 h, p < 0.01)
COC(=O)c1cccc(COc2c(-c3ccc(OCCOCCn4cc(CN(Cc5ccccc5)Cc5cn(CCOCCOc6ccc(-c7oc8ccccc8c(=O)c7OCc7cccc(C(=O)OC)c7)cc6)nn5)nn4)cc3)oc3ccccc3c2=O)c1 [Ac15(Az8)2]	200%	did not affect	did not affect	0.0075 µM	increase the accumulation	increase the accumulation				
CC[C@@]1(O)C(=O)OCc2c1cc1n(c2=O)Cc2cc3c(CN(C)C)c(O)ccc3nc2-1 [topotecan]							200%	12.4 µM	1.0	about 2.1 fold
